Drawing on PubChem BioAssay AID1259407 (Chemical Carcinogenesis Research Information System (CCRIS), 2018), this text covers mutagenic call for ten compounds.

The source made the active and inactive calls. The rule behind the calls is not given here.

The subject of the data set is CCRIS mutagenicity, Ames/micronucleus/aberration tests. Kind of data set: CCRIS mutagenicity studies.
The mark [1] stands for this setting: Test System: AMES SALMONELLA TYPHIMURIUM, Strain/Indicator: TA98, Metabolic Activation: RAT, LIVER, S-9, AROCLOR 1254, Method: STANDARD PLATE.
[2] abbreviates: Test System: AMES SALMONELLA TYPHIMURIUM, Strain/Indicator: TA100, Metabolic Activation: RAT, LIVER, S-9, AROCLOR 1254, Method: STANDARD PLATE.
The mark [3] stands for this setting: Test System: AMES SALMONELLA TYPHIMURIUM, Strain/Indicator: TA100, Metabolic Activation: NONE, Method: STANDARD PLATE.
[4] abbreviates: Test System: AMES SALMONELLA TYPHIMURIUM, Strain/Indicator: TA98, Metabolic Activation: NONE, Method: STANDARD PLATE.
[5] abbreviates: Test System: AMES SALMONELLA TYPHIMURIUM, Strain/Indicator: TA1535, Metabolic Activation: NONE, Method: STANDARD PLATE.
Where [6] appears, read: Test System: AMES SALMONELLA TYPHIMURIUM, Strain/Indicator: TA1535, Metabolic Activation: RAT, LIVER, S-9, AROCLOR 1254, Method: STANDARD PLATE.
The mark [7] stands for this setting: Test System: AMES SALMONELLA TYPHIMURIUM, Strain/Indicator: TA1537, Metabolic Activation: NONE, Method: STANDARD PLATE.
Setting [8] is: Test System: AMES SALMONELLA TYPHIMURIUM, Strain/Indicator: TA1537, Metabolic Activation: RAT, LIVER, S-9, AROCLOR 1254, Method: STANDARD PLATE.

Consider `Cc1cccc2c1C(C)c1ccccc1-2` (stereo not drawn), for which the mutagenic call was “active; positive” under setting [1] and “active; positive” under setting [2].
As for `CN(N=O)C(=O)N[C@@H]1O[C@H](CO)[C@H](O)[C@H](O)[C@H]1O`, the mutagenic call (Test System: CHINESE HAMSTER V-79, Strain/Indicator: V-79/8-AZAGUANINE, Metabolic Activation: NONE, Method: STANDARD PLATE) is “active; positive”.
For the compound `O=[N+]([O-])c1ccc2sncc2c1`, the mutagenic call under setting [3] is “active; positive”.
Regarding `Cc1ccc2nc3n(C)c4ccccc4c(C)c-3c2c1`, the mutagenic call by setting is: (Test System: AMES SALMONELLA TYPHIMURIUM, Strain/Indicator: TA97, Metabolic Activation: RAT, LIVER, S-9, AROCLOR 1254, Method: STANDARD PLATE) “active; positive”; under setting [1], “active; positive”.
In the case of `C=CCN(CC=C)c1cc(NC(C)=O)c(N=Nc2c(Br)cc([N+](=O)[O-])cc2[N+](=O)[O-])cc1OC`, the mutagenic call was “inactive; negative” under setting [4]; “active; positive” under setting [1]; “active; positive” (Test System: AMES SALMONELLA TYPHIMURIUM, Strain/Indicator: YG1041, Metabolic Activation: NONE, Method: STANDARD PLATE); “active; positive” (Test System: AMES SALMONELLA TYPHIMURIUM, Strain/Indicator: YG1041, Metabolic Activation: RAT, LIVER, S-9, AROCLOR 1254, Method: STANDARD PLATE).
Take `Cc1cccc(NS(=O)(=O)c2cccc3cccnc23)c1`: the mutagenic call was “inactive; negative” under setting [4]; “inactive; negative” under setting [1]; “inactive; negative” under setting [3]; “inactive; negative” under setting [2]; “inactive; negative” under setting [5]; “inactive; negative” under setting [6]. Besides, the mutagenic call was “inactive; negative” under setting [7] and “inactive; negative” under setting [8].
Take `O=[N+]([O-])c1cccc(OS(=O)(=O)c2cccc3cccnc23)c1`: the mutagenic call runs as follows: under setting [4], “inactive; negative”; under setting [1], “active; positive”; under setting [3], “inactive; negative”; under setting [2], “active; positive”; under setting [5], “inactive; negative”; under setting [6], “inactive; negative”. Further, the mutagenic call is, setting by setting: under setting [7], “inactive; negative”; under setting [8], “inactive; negative”.
As for `c1ccc2c(c1)-c1cc3ccccc3c3cc4c(c-2c13)CCCC4`, the mutagenic call (Test System: AMES SALMONELLA TYPHIMURIUM, Strain/Indicator: TA100, Metabolic Activation: RAT, LIVER, S-9, 3-METHYLCHOLANTHRENE, Method: STANDARD PLATE) is “active; positive”.
For the compound `Nc1cc(-c2ccncc2)c[nH]c1=O`, the mutagenic call is, setting by setting: (Test System: AMES SALMONELLA TYPHIMURIUM, Strain/Indicator: TA97, Metabolic Activation: NONE) “inactive; negative”; (Test System: AMES SALMONELLA TYPHIMURIUM, Strain/Indicator: TA97, Metabolic Activation: S-9) “inactive; negative”; (Test System: AMES SALMONELLA TYPHIMURIUM, Strain/Indicator: TA98, Metabolic Activation: NONE) “inactive; negative”; under setting [4], “inactive; negative”; (Test System: AMES SALMONELLA TYPHIMURIUM, Strain/Indicator: TA98, Metabolic Activation: RAT, LIVER, S-9, Method: STANDARD PLATE) “inactive; negative”; (Test System: AMES SALMONELLA TYPHIMURIUM, Strain/Indicator: TA98, Metabolic Activation: S-9) “inactive; negative”. Further, the mutagenic call reads like this: under setting [3], “inactive; negative”; (Test System: AMES SALMONELLA TYPHIMURIUM, Strain/Indicator: TA100, Metabolic Activation: RAT, LIVER, S-9, Method: STANDARD PLATE) “inactive; negative”; (Test System: AMES SALMONELLA TYPHIMURIUM, Strain/Indicator: TA100, Metabolic Activation: S-9) “inactive; negative”; (Test System: AMES SALMONELLA TYPHIMURIUM, Strain/Indicator: TA102, Metabolic Activation: NONE) “inactive; negative”; (Test System: AMES SALMONELLA TYPHIMURIUM, Strain/Indicator: TA102, Metabolic Activation: S-9) “inactive; negative”; under setting [5], “inactive; negative”. The mutagenic call (Test System: AMES SALMONELLA TYPHIMURIUM, Strain/Indicator: TA1535, Metabolic Activation: RAT, LIVER, S-9, Method: STANDARD PLATE) was “inactive; negative”; the mutagenic call under setting [7] was “inactive; negative”; the mutagenic call (Test System: AMES SALMONELLA TYPHIMURIUM, Strain/Indicator: TA1537, Metabolic Activation: RAT, LIVER, S-9, Method: STANDARD PLATE) is “inactive; negative”; the mutagenic call (Test System: AMES SALMONELLA TYPHIMURIUM, Strain/Indicator: TA1538, Metabolic Activation: NONE, Method: STANDARD PLATE) was “inactive; negative”; the mutagenic call (Test System: AMES SALMONELLA TYPHIMURIUM, Strain/Indicator: TA1538, Metabolic Activation: RAT, LIVER, S-9, Method: STANDARD PLATE) was “inactive; negative”.
On to `CC(I)C1OCC(CO)O1` (stereo not drawn), for which the mutagenic call was “inactive; negative” (Test System: AMES SALMONELLA TYPHIMURIUM, Strain/Indicator: TA98, Metabolic Activation: HAMSTER, LIVER, S-9, AROCLOR 1254, Method: PREINCUBATION); “inactive; negative” (Test System: AMES SALMONELLA TYPHIMURIUM, Strain/Indicator: TA98, Metabolic Activation: NONE, Method: PREINCUBATION); “inactive; negative” (Test System: AMES SALMONELLA TYPHIMURIUM, Strain/Indicator: TA98, Metabolic Activation: RAT, LIVER, S-9, AROCLOR 1254, Method: PREINCUBATION); “active; positive” (Test System: AMES SALMONELLA TYPHIMURIUM, Strain/Indicator: TA100, Metabolic Activation: HAMSTER, LIVER, S-9, AROCLOR 1254, Method: PREINCUBATION); “active; positive” (Test System: AMES SALMONELLA TYPHIMURIUM, Strain/Indicator: TA100, Metabolic Activation: NONE, Method: PREINCUBATION); “active; positive” (Test System: AMES SALMONELLA TYPHIMURIUM, Strain/Indicator: TA100, Metabolic Activation: RAT, LIVER, S-9, AROCLOR 1254, Method: PREINCUBATION). In addition, the mutagenic call by setting is: (Test System: AMES SALMONELLA TYPHIMURIUM, Strain/Indicator: TA1535, Metabolic Activation: HAMSTER, LIVER, S-9, AROCLOR 1254, Method: PREINCUBATION) “active; positive”; (Test System: AMES SALMONELLA TYPHIMURIUM, Strain/Indicator: TA1535, Metabolic Activation: NONE, Method: PREINCUBATION) “active; positive”; (Test System: AMES SALMONELLA TYPHIMURIUM, Strain/Indicator: TA1535, Metabolic Activation: RAT, LIVER, S-9, AROCLOR 1254, Method: PREINCUBATION) “active; positive”; (Test System: AMES SALMONELLA TYPHIMURIUM, Strain/Indicator: TA1537, Metabolic Activation: HAMSTER, LIVER, S-9, AROCLOR 1254, Method: PREINCUBATION) “inactive; negative”; (Test System: AMES SALMONELLA TYPHIMURIUM, Strain/Indicator: TA1537, Metabolic Activation: NONE, Method: PREINCUBATION) “inactive; negative”; (Test System: AMES SALMONELLA TYPHIMURIUM, Strain/Indicator: TA1537, Metabolic Activation: RAT, LIVER, S-9, AROCLOR 1254, Method: PREINCUBATION) “inactive; negative”. The mutagenic call is, setting by setting: (Test System: MOUSE LYMPHOMA, Strain/Indicator: L5178Y (TK+/TK-), Metabolic Activation: NONE, Method: SUSPENSION/PLATE) “active; positive”; (Test System: UDS RAT HEPATOCYTES, Metabolic Activation: NONE, Method: AUTORADIOGRAPHY) “inactive; negative”.
